Results on 4 compounds are retold here after PMC11281459 (Viruses, 2024).

Molecules are shown by their SMILES. Values joined by “and” are separate entries in the source; they are usually repeats but may differ in a detail not shown here. Identical values can stand only once. Like-named read-outs stand apart in the source and are kept apart here.

The target in series [1] is hCoV-NL63 3CLPro (Human coronavirus NL63, UniProt P0C6X5). The series can be described thus: biochemical.
The test system of series [2] is MERS-CoV. The series can be described thus: microbe, parasite or virus in culture. It counts as cell-based. The following applies: for EC90: read-out: EC90 Mean ± SD.
The target of series [3] is SARS-CoV-1 3CLPro (Severe acute respiratory syndrome coronavirus, UniProt P0C6X7). Kind of series: biochemical.
Series [4] deals with SARS-CoV-2. Kind of series: microbe, parasite or virus in culture. It counts as cell-based.
Series [5] is described as follows: in vitro. The settings on record: African green monkey.
Series [6] relates to MERS-CoV. Kind of series: microbe, parasite or virus in culture. It counts as cell-based. The following applies: read-out: IC50 Mean ± SD.
Series [7] deals with SARS-CoV-2 USA-WA1/2020. Set-up: species or system transgenic K18-hACE2 mice. The settings on record: mouse, in vivo.
Series [8] deals with MERS-CoV 3CLPro (Middle East respiratory syndrome-related coronavirus, UniProt K9N7C7). The series can be described thus: biochemical.
For series [9], the target named is hCoV-OC43 3CLPro (Human coronavirus OC43, UniProt P0C6X6). Kind of series: biochemical.
Series [10] in a line: in vivo. The settings on record: female, CD-1, mouse; for AUC: po.
For series [11], the target named is hCoV-229E 3CLPro (Human coronavirus 229E, UniProt P0C6X1). Kind of series: biochemical.
For series [12] the following is noted: in vivo.
In series [13] the test system is hCoV-229E. The series can be described thus: microbe, parasite or virus in culture. It counts as cell-based. The following applies: Human coronavirus 229E, Huh-7, 120 h, read-out: EC50 Geomean.
For series [14], the system named is hCoV-OC43. Kind of series: microbe, parasite or virus in culture. It counts as cell-based. The settings on record: Betacoronavirus 1, OC43, Huh-7, 120 h, read-out: EC50 Geomean.
Series [15] relates to MERS-CoV replicon. The series can be described thus: microbe, parasite or virus in culture. It counts as cell-based. The settings on record: Middle East respiratory syndrome-related coronavirus, A549, read-out: EC50 Geomean.
Series [16] can be described thus: in vitro. The settings on record: human.
The test system of series [17] is SARS-CoV-2 replicon. The following applies: read-out: EC50 Geomean.
For series [18] the following is noted: K18-hDPP4, mouse, in vivo.
Series [19] relates to MERS-CoV EMC 2012. The settings on record: mouse, in vivo.
Series [20] addresses hCoV-HKU1 3CLPro (Human coronavirus HKU1, UniProt P0C6X2). Kind of series: biochemical.
For series [21], the system named is SARS-CoV-2 replicon. Kind of series: microbe, parasite or virus in culture. The following applies: Severe acute respiratory syndrome coronavirus 2, A549, read-out: EC50 Geomean.
The conditions of series [22]: in vivo; cited from earlier work.
Series [23] relates to COVID-19. The settings on record: human, in vivo; cited from earlier work.
Series [24] deals with SARS-CoV-2 (Omicron EG.5.1) and MERS-CoV. It counts as cell-based.
Series [25] relates to Vero E6+TMPRSS2 cells.
[26] abbreviates: Middle East respiratory syndrome-related coronavirus, VeroE6/TMPRSS2, 72 h, read-out: EC50 Mean ± SD.
The mark [27] stands for this setting: Middle East respiratory syndrome-related coronavirus, read-out: EC50 Geomean.
Where [28] appears, read: Middle East respiratory syndrome-related coronavirus.
Setting [29] is: Severe acute respiratory syndrome coronavirus 2, read-out: EC50 Geomean.
Where [30] appears, read: Middle East respiratory syndrome-related coronavirus, VeroE6/TMPRSS2, 48 h.

MERS-CoV 3CLPro, sequence (K9N7C7 3248-3553 limits assumed): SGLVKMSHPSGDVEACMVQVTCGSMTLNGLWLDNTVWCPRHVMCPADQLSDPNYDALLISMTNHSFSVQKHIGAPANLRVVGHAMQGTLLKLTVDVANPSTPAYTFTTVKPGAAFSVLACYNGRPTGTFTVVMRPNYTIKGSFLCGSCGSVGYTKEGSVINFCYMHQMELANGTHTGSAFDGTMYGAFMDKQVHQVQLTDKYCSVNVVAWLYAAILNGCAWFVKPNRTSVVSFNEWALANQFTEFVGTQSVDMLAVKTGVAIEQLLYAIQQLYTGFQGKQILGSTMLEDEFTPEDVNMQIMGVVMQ
hCoV-NL63 3CLPro, sequence (P0C6X5 2940-3242 limits assumed): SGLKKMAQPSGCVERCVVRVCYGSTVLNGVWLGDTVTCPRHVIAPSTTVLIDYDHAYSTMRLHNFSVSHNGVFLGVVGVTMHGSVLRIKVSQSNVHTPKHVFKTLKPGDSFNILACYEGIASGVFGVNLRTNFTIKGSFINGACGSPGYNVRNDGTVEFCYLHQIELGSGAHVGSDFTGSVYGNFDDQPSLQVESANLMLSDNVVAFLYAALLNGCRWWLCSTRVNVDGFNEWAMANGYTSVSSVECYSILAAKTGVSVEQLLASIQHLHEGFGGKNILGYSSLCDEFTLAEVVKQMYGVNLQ
hCoV-229E 3CLPro, sequence (P0C6X1 2966-3267 limits assumed): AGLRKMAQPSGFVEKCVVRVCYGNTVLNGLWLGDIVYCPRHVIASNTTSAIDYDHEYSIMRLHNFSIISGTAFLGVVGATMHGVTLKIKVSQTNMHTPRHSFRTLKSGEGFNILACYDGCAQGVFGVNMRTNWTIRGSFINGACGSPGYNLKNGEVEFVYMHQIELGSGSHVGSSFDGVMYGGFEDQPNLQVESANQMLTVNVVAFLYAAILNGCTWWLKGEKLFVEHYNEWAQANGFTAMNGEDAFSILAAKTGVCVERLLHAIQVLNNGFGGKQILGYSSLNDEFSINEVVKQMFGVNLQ
hCoV-HKU1 3CLPro, sequence (P0C6X2 3335-3637 limits assumed): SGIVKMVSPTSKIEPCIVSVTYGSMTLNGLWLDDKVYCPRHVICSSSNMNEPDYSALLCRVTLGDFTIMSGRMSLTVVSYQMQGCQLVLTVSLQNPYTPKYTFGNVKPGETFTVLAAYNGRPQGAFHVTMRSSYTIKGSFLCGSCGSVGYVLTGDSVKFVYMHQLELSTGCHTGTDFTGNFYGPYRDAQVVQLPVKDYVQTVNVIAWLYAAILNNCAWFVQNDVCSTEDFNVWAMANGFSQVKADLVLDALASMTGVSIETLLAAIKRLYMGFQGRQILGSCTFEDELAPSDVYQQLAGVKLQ
hCoV-OC43 3CLPro, sequence (P0C6X6 3247-3549 limits assumed): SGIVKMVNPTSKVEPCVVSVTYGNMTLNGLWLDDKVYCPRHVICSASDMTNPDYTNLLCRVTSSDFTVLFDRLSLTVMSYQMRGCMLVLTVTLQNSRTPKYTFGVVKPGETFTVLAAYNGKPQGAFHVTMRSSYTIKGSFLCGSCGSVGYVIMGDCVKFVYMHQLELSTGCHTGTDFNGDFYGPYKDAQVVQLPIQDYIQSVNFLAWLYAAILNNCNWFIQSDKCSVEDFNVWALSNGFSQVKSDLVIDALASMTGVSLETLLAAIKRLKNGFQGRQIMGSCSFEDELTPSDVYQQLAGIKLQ

Consider `CNC(=O)C(=O)[C@H](CCC(C)(F)F)NC(=O)[C@@H]1[C@H]2CCC[C@H]2CN1C(=O)[C@@H](NC(=O)OC)C(C)(C)C` [MK-7845], for which the “unbound mouse plasma fraction (fup)” value was found to be 0.379. Further, the midpoint of inhibition in series [1], the IC50, lay at 0.167 µM. Further, the EC50 in [2] (setting [26]) was 0.46 µM. The EC50 in [2] (setting [27]) was 0.39 µM. Moreover, the EC90 in series [2] (setting [28]) turned out to be 0.541 ± 0.01 µM. Besides, the EC50 in [2] (read-out: EC50 Mean ± SD) worked out at 0.463 ± 0.008 µM. This compound had an IC50 in series [3] of 0.0192 µM. Also, the EC50 in series [4] (setting [29]) worked out at 0.14 µM. Moreover, in series [5], the CC50 was over 100 µM. In addition, the IC50 in series [6] (setting [30]) is 0.36 µM. For the same compound, the half-inhibitory concentration (IC50) in series [6] is 0.362 ± 0.065 µM. Moreover, in series [7], the body weight change result is listed as “gained weight”; the “lung pathology (H&E, semi-quantitative)” value is reported as “significantly reduced”; the “lung pathology compared with vehicle group (H&E, semi-quantitative)” value is on record as “similar”; the “reduction in lung viral load (TCID50)” value was “no significant reduction in viral load”. Besides, in series [7], the “reduction in viral burden (TCID50) versus the nirmatrelvir group” value is 3.4 log and 5 log; the “reduction in viral load by PFU assay compared to vehicle control” value was “did not show a significant reduction in viral load”; the “reduction of lung viral load (TCID50) compared to vehicle control” value is ~ 5 logs and ~ 6 logs. Moreover, the “reduction in viral burdens in the lungs” value in series [7] (po) is over 6 log orders. This compound also showed an IC50 in series [8] of 0.318 µM. The compound further came in with an IC50 in series [9] of 0.017 µM. In addition, in series [10] (iv, 5 mg/kg), the distribution volume (Vd) worked out at 1.2 L/kg, the clearance amounted to 1.05 L/h/kg and the half-life is 47.4 min. In series [10] (100 mg/kg), this compound registered an AUC of 49.1 µg·h/mL. Moreover, the AUC in series [10] (250 mg/kg) worked out at 146 µg·h/mL. Besides, the AUC in series [10] (500 mg/kg) came out at 238 µg·h/mL. Moreover, the AUC in series [10] (1000 mg/kg) worked out at 306 µg·h/mL. The compound also showed an IC50 in series [11] of 0.307 µM. Besides, the “plasma concentrations versus PBA EC90” value in [12] (CD-1, mouse) is recorded as “above the PBA EC90”. Further, in series [12] (mouse), the “total plasma concentrations versus replicon EC90 and PBA EC90” value is reported as “stayed above”. For the same compound, the EC50 in [13] turned out to be 3.15 µM. In [14], the EC50 was found to be 0.37 µM. Further, the EC50 in series [15] was 0.27 µM. For the same compound, the EC50 in [16] was over 36 µM. Moreover, the EC50 in series [17] is 0.015 µM. Besides, in series [18], the “plasma levels at troughs versus PBA EC90” value was “above the PBA EC90”. Moreover, in series [19], the “PFU assay of lung homogenate” value is “no plaques were formed”; the “decrease in viral burden by PFU assay compared to vehicle-treated mice” value is ~ 6 log; the “lung pathology (H&E, semi-quantitative)” value is “notable reduction in lung pathology”; the “reduction in viral burden compared to vehicle-control group” value is listed as 3 log TCID50. Moreover, in [19], the “reduction in viral load by PFU assay in comparison to nirmatrelvir” value is 2.9 log and 3.6 log; the “viral genomic RNA in lung tissue by RT-PCR” value is reported as “did not observe a significant reduction”. In addition, the “reduction in viral burdens in the lungs” value in series [19] (po) is recorded as over 6 log orders. In addition, the midpoint of inhibition in [20], the IC50, lay at 0.0255 µM.

As to `CC(C)(C)[C@H](NC(=O)C(F)(F)F)C(=O)N1C[C@H]2[C@@H]([C@H]1C(=O)N[C@H](C#N)C[C@@H]1CCNC1=O)C2(C)C` [Nirmatrelvir, nirmatrelvir], the EC50 in [2] (setting [26]) stood at 0.088 ± 0.03 µM; in series [2] (setting [27]), 0.07 µM; in series [4] (setting [29]) it was 0.07 µM; in series [4] (read-out: EC50 Mean ± SD), 0.05 ± 0.01 µM; in series [21], 0.01 µM; in [13], 0.473 µM. In addition, the EC50 is 0.163 µM in series [14], 0.06 µM in [15] and over 36 µM in [16]. Also, the EC90 in series [2] (setting [28]) was 0.164 ± 0.01 µM. The CC50 in [5] is over 100 µM. Moreover, the IC50 in series [6] (setting [30]) was determined as 0.117 ± 0.023 µM. Also, the “lung pathology compared with vehicle group (H&E, semi-quantitative)” value in series [7] is “similar”. Also, the “lung viral loads (TCID50), dose validation” value in [7] and in series [19] was “significant reduction in the lung viral loads” in each case. Besides, the “viral lung burden (TCID50 and PFU assay)” value in series [7] is recorded as ~ 6 logs. Further, the “increase of plasma levels by ritonavir” value in series [22] is “up to 20 fold”. Also, the “reduction in hospitalization rates and deaths” value in series [23] was 80–90%.

Turning to `CCC(CC)COC(=O)[C@H](C)N[P@](=O)(OC[C@H]1O[C@@](C#N)(c2ccc3c(N)ncnn23)[C@H](O)[C@@H]1O)Oc1ccccc1` [Remdesivir, remdesivir], the EC50 in series [2] (setting [26]) was 0.11 ± 0.018 µM; in series [2] (setting [27]) it was 0.15 µM; in [4] (Severe acute respiratory syndrome coronavirus 2, VeroE6/TMPRSS2, 72 h, read-out: EC50 Mean ± SD) it was 0.149 ± 0.004 µM; in series [4] (setting [29]), 0.17 µM; in series [4] (read-out: EC50 Mean ± SD), 0.11 µM and 0.163 µM and 0.094 µM and 0.155 µM and 0.09 µM and 0.141 µM and 0.15 µM; in series [21], 0.27 µM. In addition, in [15], the EC50 was 0.78 µM. Further, the 90% effect concentration (EC90) in series [2] (setting [28]) was determined as 0.24 ± 0.093 µM. In addition, in series [5], the CC50 stood at 20 µM. In addition, the IC50 in series [6] (setting [30]) is 0.167 ± 0.033 µM. The “shift in activity in the presence versus the absence of the P-GP inhibitor” value in series [24] is given as “significant shift in activity”.

In the case of `COc1cc2c(cc1OC)CN(CCc1ccc(NC(=O)c3cccc4c(=O)c5cccc(OC)c5[nH]c34)cc1)CC2` [elacridar], the “effect of P-GP inhibitor on the infection” value in [24] was “did not show an effect on the infection”. Moreover, the “toxicity of P-GP inhibitor to cells” value in series [25] is “not toxic”.

As a reminder, the IC50 is the concentration at which inhibition is half-maximal. One may read the EC50 as the midpoint of the concentration-response curve. As a reminder, the EC90 is the point of the concentration-response curve where the effect stands at 90%. By Vd is commonly meant the apparent volume that relates the amount in the body to the concentration in plasma or blood. As a reminder, the clearance is the rate of elimination divided by the concentration. For orientation: half-life means how long it takes for the measured level to halve. Broadly, the AUC is concentration integrated over time.
